Experiment: xn = mol fraction of the nth substance listed

CCC(C)O (configuration not stated) + CO
298.15 K, 101.33 kPa
Conditions	viscosity [mPa·s]
x2 = 0.1153	2.681
x2 = 0.2124	2.341
x2 = 0.2972	2.063
x2 = 0.3974	1.765
x2 = 0.4714	1.563
x2 = 0.5959	1.263
x2 = 0.671	1.102
x2 = 0.8045	0.852
x2 = 0.8927	0.711

O=S1(=O)CCCC1 + CO
viscosity [mPa·s], 101 kPa
Conditions	298.15 K	303.15 K	308.15 K	313.15 K	323.15 K
x1 = 0.0496	0.607	0.569	–	0.498	0.437
x1 = 0.068	–	0.5856	0.5474	0.5133	–
x1 = 0.0966	0.694	0.648	–	0.565	0.495
x1 = 0.1103	–	0.6512	0.6081	0.5686	–
x1 = 0.1632	0.814	0.757	–	0.661	0.579
x1 = 0.1658	–	0.756	0.7042	0.6574	–
x1 = 0.2274	–	0.8999	0.8344	0.7787	–
x1 = 0.2282	0.985	0.916	–	0.792	0.686
x1 = 0.306	1.227	1.137	–	0.986	0.867
x1 = 0.3087	–	1.13	1.047	0.9753	–
x1 = 0.3969	1.587	1.458	–	1.238	1.062
x1 = 0.4056	–	1.495	1.378	1.279	–
x1 = 0.5037	2.208	2.022	–	1.687	1.467
x1 = 0.5284	–	2.142	1.96	1.803	–
x1 = 0.6337	3.233	2.982	–	2.466	2.125
x1 = 0.6422	–	3.025	2.753	2.515	–
x1 = 0.7703	–	4.551	4.1	3.722	–
x1 = 0.7949	5.516	5.126	–	4.165	3.476

Cc1cccc(C)c1 + COCCO
viscosity [mPa·s], 101 kPa
Conditions	298.15 K	308.15 K
x2 = 0.0519	0.598	0.513
x2 = 0.1498	0.635	0.543
x2 = 0.2504	0.681	0.58
x2 = 0.3476	0.737	0.624
x2 = 0.452	0.81	0.68
x2 = 0.4991	0.848	0.709
x2 = 0.5538	0.897	0.746
x2 = 0.6476	0.996	0.819
x2 = 0.7504	1.127	0.915
x2 = 0.8491	1.282	1.026
x2 = 0.9558	1.491	1.172

Nc1ccccc1Cl + COCCO
303.15 K, 101 kPa
Conditions	viscosity [mPa·s]
x1 = 0.093	2.184
x1 = 0.157	2.388
x1 = 0.2242	2.597
x1 = 0.3168	2.811
x1 = 0.415	3.024
x1 = 0.5093	3.223
x1 = 0.6253	3.414
x1 = 0.7713	3.581
x1 = 0.8914	3.711

O=S1(=O)CCCC1 + COCCO
303.15 K, 101 kPa
Conditions	viscosity [mPa·s]
x1 = 0.0483	1.2
x1 = 0.0994	1.054
x1 = 0.1962	1.489
x1 = 0.2953	2.053
x1 = 0.3486	2.251
x1 = 0.4007	2.703
x1 = 0.4569	3.258
x1 = 0.4997	3.863
x1 = 0.5991	4.997
x1 = 0.7126	6.301
x1 = 0.7971	7.413
x1 = 0.8496	8.345
x1 = 0.8986	9.013

Nc1ccccc1Cl + COc1ccccc1
viscosity [mPa·s], 101 kPa
Conditions	x2 = 0.1009	x2 = 0.1969	x2 = 0.2948	x2 = 0.3986	x2 = 0.4961	x2 = 0.5977	x2 = 0.6935	x2 = 0.7952	x2 = 0.9001
298.15 K	2.72	2.454	2.19	1.958	1.746	1.566	1.404	1.27	1.124
303.15 K	2.42	2.196	1.969	1.762	1.583	1.427	1.285	1.156	1.044
308.15 K	2.162	1.971	1.772	1.595	1.438	1.302	1.176	1.064	0.9578
313.15 K	1.939	1.773	1.6	1.446	1.309	1.189	1.08	0.9804	0.8856
